Measured values taken from article PMC7066893 (Aging (Albany NY), 2020).

Target: T1, P-glycoprotein (P-gp) (Homo sapiens, UniProt P08183)
T1 construct: gene ABCB1
Assay: Pgp-Glo luminescent P-gp ATPase assay; inhibition of paclitaxel-stimulated ATPase at […]
Assay type: biochemical

T1 sequence (P08183 whole entry): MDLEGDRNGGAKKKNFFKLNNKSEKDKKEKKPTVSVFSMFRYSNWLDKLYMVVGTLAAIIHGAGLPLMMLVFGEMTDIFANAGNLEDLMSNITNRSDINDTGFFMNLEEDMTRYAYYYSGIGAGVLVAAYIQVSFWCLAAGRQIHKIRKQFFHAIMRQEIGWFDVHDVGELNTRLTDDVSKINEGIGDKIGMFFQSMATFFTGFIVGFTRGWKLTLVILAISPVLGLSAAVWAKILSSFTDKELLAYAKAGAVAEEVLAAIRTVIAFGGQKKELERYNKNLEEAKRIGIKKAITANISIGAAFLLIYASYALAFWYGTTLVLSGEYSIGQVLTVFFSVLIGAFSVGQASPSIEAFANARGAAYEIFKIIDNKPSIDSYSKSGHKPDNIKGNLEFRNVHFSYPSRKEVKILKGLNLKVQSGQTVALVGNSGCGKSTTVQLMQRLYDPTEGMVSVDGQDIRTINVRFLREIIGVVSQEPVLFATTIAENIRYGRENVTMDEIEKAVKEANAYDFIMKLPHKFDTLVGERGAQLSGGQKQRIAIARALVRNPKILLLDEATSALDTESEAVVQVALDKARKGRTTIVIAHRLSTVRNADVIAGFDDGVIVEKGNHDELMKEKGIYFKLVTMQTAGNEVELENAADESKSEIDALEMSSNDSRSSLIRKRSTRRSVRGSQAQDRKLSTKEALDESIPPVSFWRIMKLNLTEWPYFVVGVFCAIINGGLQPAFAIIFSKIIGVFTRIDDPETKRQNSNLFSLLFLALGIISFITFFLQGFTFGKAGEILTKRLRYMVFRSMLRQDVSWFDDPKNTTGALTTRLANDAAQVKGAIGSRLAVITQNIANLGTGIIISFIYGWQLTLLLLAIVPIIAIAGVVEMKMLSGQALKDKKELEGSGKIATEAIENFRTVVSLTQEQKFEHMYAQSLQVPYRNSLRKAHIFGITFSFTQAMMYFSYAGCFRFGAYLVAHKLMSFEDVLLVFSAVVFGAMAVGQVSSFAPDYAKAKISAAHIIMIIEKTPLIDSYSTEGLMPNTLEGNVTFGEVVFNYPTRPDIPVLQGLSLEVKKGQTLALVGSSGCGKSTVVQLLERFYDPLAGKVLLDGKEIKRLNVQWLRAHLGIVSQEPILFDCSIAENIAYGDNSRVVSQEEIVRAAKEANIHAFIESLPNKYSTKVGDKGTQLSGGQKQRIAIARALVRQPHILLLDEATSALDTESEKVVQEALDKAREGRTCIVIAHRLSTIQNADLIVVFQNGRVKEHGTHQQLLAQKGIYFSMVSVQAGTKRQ

C/C1=C\[C@@H]2[C@H](CC[C@@]3(C)O[C@@H]3[C@H]3[C@@H](O)[C@@H](C)C[C@]3(OC(=O)/C=C/c3ccccc3)C1=O)C2(C)C [EM-E-11-4]
Pgp-Glo luminescent P-gp ATPase assay; inhibition of paclitaxel-stimulated ATPas: These results suggest that EM-E-11-4 hinders P-gp ATPase activity
